Residues, ends and D or L forms follow the SMILES beside them. *: point of attachment. Cbz = O=C(OCc1ccccc1)*
Columns and labels:
KSS cybrid cells = assay: KSS ΔmtDNA quantification by qPCR in KSS heteroplasmic cybrid cells; assay type: cell-based, human; conditions: for KSS ΔmtDNA percentage: 4 weeks, from ˜50%
Method: For human patient fibroblast cell lines, wild-type and ΔKSS primers were used to detect wild-type mtDNA or ΔKSS mtDNA. Primers that amplify a sequence within the B2M ([…]) gene were used as an internal control for normalization. Absolute quantification was also performed to determine the percentage or ratio of KSS ΔmtDNA relative to total mtDNA (KSS ΔmtDNA and wild-type mtDNA) as previously described (11). Primers that specifically amplify wild-type or ΔmtDNA are listed in Table A. Standard curves for each qPCR primer set were generated using purified plasmids individually containing approximately 1 kb of the mtDNA fragments specific for each primer set. A Student's t-test was employed to determine the level of statistical significance.
(§1) The KSS cell line was a gift from Carlos Moraes (29, 30). The CoxI […] cell line was a gift from Giovanni Manfredi (28). Cells were cultured in DMEM (4 mM L-glutamine, 4.5 g/L glucose; Gibco, Thermo Fisher Scientific) plus 10% FBS with 1% pen-strep. Total cellular mtDNA was prepared as described (40). Cells were incubated continuously in the described concentration of CDDO for the indicated number of days. The cells were sub-cultured prior to confluence every 48 hours.
Cells were grown on 6-well plates and siRNAs were transfected with Lipofectamine RNAiMAX (Thermo Fisher Scientific) following the manufacturer's instructions. Human LONP1 RNAi was used in knockdown experiment (Dharmacon L-003979-00-0005) (e.g., a pool comprising GGAAAUCGGCCUACAAGAU (SEQ ID NO:1), GCGCAUGUAUGACGUGACA (SEQ ID NO:2), CGAGAGUACUUCCGCUUCA (SEQ ID NO:3), and GAAGAGACCAAUAUUCCUA (SEQ ID NO:4)).
ATF5 shRNA knockdown lentiviral constructs were generated using psp-108 vector (Addgene), and viruses were produced by co-transfection along with plasmids pMD2.G (Addgene) and psPAX2 (Addgene) into HEK293T cells. All viral titers were predetermined, and same number of viral particles was used for experimental and control samples. KSS cells were infected with lentiviruses, selected with puromycin for 5-7 days, and re-plated for proliferation. ATFS knockdown targeting sequences are: shRNA-1, 5′-[…]-3′ (SEQ ID NO:5); shRNA-2, 5′-[…]-3′ (SEQ ID NO:6); shRNA-3, 5′-[…]-3′ (SEQ ID NO:7); see horizondiscovery.com/en/products/gene-modulation/knockdown-reagents/shrna/PIFs/TRC-Lentiviral-shRNA?nodeid=entrezgene-22809#specifications.

CoxI G6930A cybrid cells = assay: Percentage of CoxI G6930A mtDNA by deep sequencing in cybrid cells; assay type: cell-based, human; conditions: for CoxI G6930A mtDNA percentage: 3 weeks, from 86%; for CoxI G6930A mtDNA heteroplasmic ratio: 18.5 weeks continuous, from ˜90%
Method: Library construction for deep sequencing was modified from our previous report (7). Following CDDO treatment, cells were harvested at different time points and genomic DNA extracted. Briefly, regions flanking the CoxI […] site were PCR amplified using locus-specific primers bearing tails complementary to the Truseq adapters as described previously (38). 50-100 ng input genomic DNA (mtDNA included) was PCR amplified with Phusion High Fidelity DNA Polymerase (New England Biolabs):(98° C., 15 s; 67° C. 25 s; 72° C. 18 s)×30 cycles. 1 μl of each PCR reaction was amplified with barcoded primers to reconstitute the TruSeq adaptors using the Phusion High Fidelity DNA Polymerase (New England Biolabs): (98° C., 15 s; 61° C., 25 s; 72° C., 18 s)×9 cycles. Equal amounts of the products were pooled and gel purified. The purified library was deep sequenced using a paired-end 150 bp Illumina MiSeq run.
MiSeq data analysis for editing at target sites or off-target sites was performed using a suite of Unix-based-software tools. First, the quality of the paired-end sequencing reads (R1 and R2 fastq files) was assessed using FastQC (bioinformatics.babraham.ac.uk/projects/fastqc/). Raw paired-end reads were combined using paired end read merger (PEAR) (39) to generate single merged high-quality full-length reads. Reads were then filtered by quality (using Filter FASTQC (38)) to remove those with a mean PHRED quality score under 30 and a minimum per base score under 24. Each group of reads was then aligned to a corresponding reference sequence using BWA (version 0.7.5) and SAMtools (version 0.1.19). To determine background SNP or sequencing errors, all reads from each negative control replicate were combined and aligned, as described above. Background SNP types and frequencies were then cataloged in a text output format at each base using bam-readcount (github.com/genome/bam-readcount). For each drug treatment group, the average background SNP frequencies (based on SNP type, position and frequency) of the triplicate negative control group were subtracted to obtain the accurate SNP frequencies.
as §1

CoxI G6930A cells [1] = assay: Cell viability (trypan blue), CoxI G6930A cells; assay type: cell-based, human; conditions: 0.1 μM and 0.25 μM CDDO, 72 hours
Method: as §1
(§2) At the indicated time points, cells were stained with trypan blue (41) and quantified with an automated cell counter TC-20™ (Bio-Rad). The results are an average of three independent assays.

KSS ΔmtDNA cells = assay: Cell viability (trypan blue), KSS cells; assay type: cell-based, human; conditions: 0.1 μM and 0.25 μM CDDO, 72 hours
Method: as §1, §2

CoxI G6930A cells [2] = assay: Respiration assay, oxygen consumption rate (Seahorse), CoxI G6930A cells; assay type: cell-based, human
Method: (§3) For mitochondrial respiration assays, oxygen consumption rate (OCR) was measured using a Seahorse Extracellular Flux Analyzer XFe96 (Seahorse Biosciences) as described (40). 14,000 cells were seeded per well and OCR was measured using the Cell MitoStress Kit (as described by the manufacture). 180 μl of XF-Media was added to each well and then the plates were subjected to analysis following sequential introduction of 1.5 μM oligomycin, 1.5 μM FCCP and 0.5 μM rotenone/antimycin as indicated. Data is normalized to total protein as determined by the BCA protein assay.

KSS heteroplasmic cells = assay: Respiration assay, oxygen consumption rate (Seahorse), KSS cells; assay type: cell-based, human; conditions: 0.1 μM or 0.25 μM, 4 weeks
Method: as §3

[3] = 20 mg for 56 consecutive days; cited from earlier work
LONP1 protease = target: T1, LONP1 protease (Homo sapiens, UniProt P36776); conditions: cited from earlier work
T1 sequence (P36776 68-959): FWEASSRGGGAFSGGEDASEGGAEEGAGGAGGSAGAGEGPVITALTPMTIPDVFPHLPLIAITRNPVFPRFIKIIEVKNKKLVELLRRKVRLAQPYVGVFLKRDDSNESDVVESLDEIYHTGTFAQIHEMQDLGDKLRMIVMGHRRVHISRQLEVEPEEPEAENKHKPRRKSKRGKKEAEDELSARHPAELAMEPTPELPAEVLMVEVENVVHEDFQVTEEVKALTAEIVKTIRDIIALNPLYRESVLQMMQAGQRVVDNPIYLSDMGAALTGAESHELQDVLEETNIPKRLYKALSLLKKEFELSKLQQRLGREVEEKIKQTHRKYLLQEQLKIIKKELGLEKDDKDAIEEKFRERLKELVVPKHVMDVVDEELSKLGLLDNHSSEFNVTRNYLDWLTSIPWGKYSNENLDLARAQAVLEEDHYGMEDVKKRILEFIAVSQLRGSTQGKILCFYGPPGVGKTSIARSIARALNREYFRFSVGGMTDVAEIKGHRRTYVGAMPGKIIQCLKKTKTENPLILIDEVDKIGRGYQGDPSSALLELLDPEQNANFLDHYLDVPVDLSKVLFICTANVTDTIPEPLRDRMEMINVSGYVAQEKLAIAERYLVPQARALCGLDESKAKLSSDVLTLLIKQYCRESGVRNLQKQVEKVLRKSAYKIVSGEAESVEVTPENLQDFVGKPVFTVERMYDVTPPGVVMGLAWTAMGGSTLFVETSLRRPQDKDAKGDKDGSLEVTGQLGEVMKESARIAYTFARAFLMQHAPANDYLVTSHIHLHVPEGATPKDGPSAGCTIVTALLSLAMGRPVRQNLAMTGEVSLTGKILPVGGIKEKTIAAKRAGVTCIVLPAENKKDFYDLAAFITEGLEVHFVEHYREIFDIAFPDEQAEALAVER

For `CC1(C)CC[C@]2(C(=O)O)CC[C@]3(C)[C@H](C(=O)C=C4[C@@]5(C)C=C(C#N)C(=O)C(C)(C)[C@@H]5CC[C@]43C)[C@@H]2C1` [CDDO, 2-cyano-3,12-dioxo-oleana-1,9(11)-dien-28-oic acid], which “KSS ΔmtDNA percentage” value (KSS cybrid cells; 0.1 μM) is on record?
The value was 19.6%.

And the “KSS ΔmtDNA percentage” value (KSS cybrid cells; 0.25 μM)?
Its value is 21.2%.

And the “CoxI G6930A mtDNA percentage” value (CoxI G6930A cybrid cells; 0.1 μM)?
Its value is 68%.

What about the “CoxI G6930A mtDNA heteroplasmic ratio” value (CoxI G6930A cybrid cells; 0.1 μM) of the same molecule?
Its value is about 47%.

What about the “CoxI G6930A mtDNA percentage” value (CoxI G6930A cybrid cells; 0.25 μM) of the same molecule?
Its value is 72%.

What about the “CoxI G6930A mtDNA heteroplasmic ratio” value (CoxI G6930A cybrid cells; 0.25 μM) of the same molecule?
Its value is 62%.

What about the “viability of CoxI G6930A cell line” value (CoxI G6930A cells [1]) of the same molecule?
The value was “neither concentration affected viability”.

And the “viability of KSS cell line” value (KSS ΔmtDNA cells)?
Its value is “neither concentration affected viability”.

What about the “improvement of basal oxygen consumption” value (CoxI G6930A cells [2]; 0.1 μM, 3 weeks) of the same molecule?
The value was about 2 fold.

What about the “improvement of basal oxygen consumption” value (CoxI G6930A cells [2]; 18.5 weeks exposure) of the same molecule?
The value was “over 3 fold”.

And the maximal respiratory capacity (CoxI G6930A cells [2]; CDDO time course, 0.1 μM or 0.25 μM)?
The maximal respiratory capacity was “increased”.

What about the “increase in basal oxygen consumption” value (KSS heteroplasmic cells) of the same molecule?
The value was about 2 fold.

What about the tolerability [3] of the same molecule?
The tolerability was “well tolerated”.

Which “inhibition of LONP1 protease” value (LONP1 protease) does the source give for `CC(C)C[C@@H](C=O)NC(=O)[C@H](CC(C)C)NC(=O)[C@H](CC(C)C)NC(=O)OCc1ccccc1` [MG132, carbobenzoxy-Leu-Leu-leucinal] (Cbz-Leu-Leu-Leu-aldehyde) here?
The value was “potent inhibitors”.

With `C=C1OC(=O)/C(=C\CCCCCCCCCCCCC)[C@@H]1O` [Obtusilactone A] as the molecule, how does the “inhibition of LONP1 protease” value (LONP1 protease) read?
Its value is “inhibitors of LONP1 protease”.

With `O=c1n(CCCN2CCN(c3cccc(Cl)c3)CC2)nc2ccccn12` [Trazadone] as the molecule, how does the “heteroplasmy (ΔmtDNA) in KSS cells” value (KSS cybrid cells; shRNA lentivirus or multiple concentrations of drug, FIG. 11) read?
Its value is “improved heteroplasmy”.

With (-)-sesamin as the molecule, how does the “inhibition of LONP1 protease” value (LONP1 protease) read?
Its value is “inhibitors of LONP1 protease”.

Which “inhibition of LONP1 protease” value (LONP1 protease) does the source give for Z-Leu-Leu-Leu-B(OH)2 [MG262] here?
Its value is “potent inhibitors”.

B1: LONP1 siRNA: Dharmacon L-003979-00-0005, siRNA pool comprising SEQ ID NO:1-4 against human LONP1 (nucleic acid)
chain 1: GGAAAUCGGCCUACAAGAU
chain 2: GCGCAUGUAUGACGUGACA
chain 3: CGAGAGUACUUCCGCUUCA
chain 4: GAAGAGACCAAUAUUCCUA
modifications: siRNA pool, further chemistry not given here
Which “decrease of ΔmtDNAs” value (KSS cybrid cells; siRNA for 4 days, KSS cybrid line) does the source give for B1 here?
The value was 2.7 fold.

What about the “heteroplasmy ratio (% KSS mtDNA)” value (KSS cybrid cells; siRNA for 4 days, from 56.9%) of the same molecule?
Its value is 27.6%.
